The results in this text go back to patent publication US10759781B2, “Substituted guanidine derivatives” (UBE INDUSTRIES, LTD., priority 2015, dated 2020).

For orientation: AUC means the area under the concentration-time curve, a measure of exposure. The low end stands for less exposure, the high end for more exposure.

Data set [1] concerns the target T1, Rat Plasma VAP-1 (Rattus norvegicus, UniProt O08590).
T1 construct: from tissue; host or cells: plasma of SD male rats (7-12 weeks old) after oral dosing
T1 sequence (O08590 28-763 limits assumed): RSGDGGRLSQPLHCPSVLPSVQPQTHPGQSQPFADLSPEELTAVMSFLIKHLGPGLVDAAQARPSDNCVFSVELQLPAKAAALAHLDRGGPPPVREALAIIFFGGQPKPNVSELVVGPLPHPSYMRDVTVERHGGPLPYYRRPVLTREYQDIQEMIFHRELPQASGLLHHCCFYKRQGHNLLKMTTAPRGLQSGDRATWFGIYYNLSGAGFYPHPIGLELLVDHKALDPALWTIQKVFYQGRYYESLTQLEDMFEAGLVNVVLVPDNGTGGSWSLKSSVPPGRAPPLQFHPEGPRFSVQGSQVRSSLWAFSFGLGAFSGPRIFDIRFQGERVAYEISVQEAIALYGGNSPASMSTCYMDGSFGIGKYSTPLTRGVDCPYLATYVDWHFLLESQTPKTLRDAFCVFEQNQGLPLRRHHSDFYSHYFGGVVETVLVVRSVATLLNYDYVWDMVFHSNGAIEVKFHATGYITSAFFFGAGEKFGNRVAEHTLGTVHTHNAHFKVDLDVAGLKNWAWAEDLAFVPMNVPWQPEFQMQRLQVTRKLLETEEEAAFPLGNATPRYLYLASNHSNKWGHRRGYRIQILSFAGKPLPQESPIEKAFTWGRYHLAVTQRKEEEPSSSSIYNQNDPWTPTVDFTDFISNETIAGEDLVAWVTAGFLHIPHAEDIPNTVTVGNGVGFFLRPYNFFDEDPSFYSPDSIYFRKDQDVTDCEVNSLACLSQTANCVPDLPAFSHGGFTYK
Briefly: (Ex vivo) rat plasma VAP-1 inhibition test after oral administration of the compound. Format: in vivo. Particulars: 3 hours after oral administration, SD male rats, read-out: inhibition ratio (plasma VAP-1, ex vivo). A digest of the protocol: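 Male SD rats, 7–12 weeks, non-fasted, dosed orally at 0.3–10 mg/kg; jugular blood taken predose and 3, 8 and 24 h after dosing. Plasma incubated with 2.5 μM 14C-benzylamine for 3 h at 37 °C; extracted product counted by scintillation. Inhibition expressed relative to each animal's predose plasma activity.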

The nature of data set [2]: in vivo. Particulars: SD, rat, po, 3 mg/kg. Set-up: species or system SD rats. How it is done:
Rat Pharmacokinetic (PK) Study (Concentration of Compound in Plasma after Oral Administration)
Seven to eight week old SD rats (weighing 180 to 250 g) were orally administered with a suspension of the compound in 0.5 W/V % methylcellulose 400 solution. Under anesthesia, the blood was collected from the jugular vein in EDTA tubes at 0.25, 0.5, 1, 2, 4, 6, 8 and 24 hours after the administration of the compound. The blood was centrifuged at 4° C. and 6000 g for 3 minutes to give plasma. Acetonitrile was added to the plasma, and the mixture was stirred with a shaker at 750 rpm for 3 minutes and was deproteinized by centrifugation at 3700 rpm for 2 minutes. Thus, the obtained sample was analyzed by LC/MS under the following conditions.
The concentration of the compound in the plasma at each blood sampling time was determined by an internal standard method, and AUC all (Area Under Curve) was calculated by a trapezoidal method.
The following LC and MS systems were used for measurement.
LC: CBM 30 series manufactured by Shimadzu Corporation
Column: Phenomenex Kinetex C18 (50×2.1 mm, 2.6 μm)
Column temperature: 40° C.
Mobile phase A: 0.1% aqueous formic acid solution, mobile phase B: 0.1% formic acid,
50% acetonitrile/methanol mixture
MS: 3200 manufactured by SCIEX

`CON=C1CN(c2ncc(-c3cccc(COC(=O)NC(=N)N)c3F)cc2F)C1` [Example 36, 2-fluoro-3-{5-fluoro-6-[3-(methoxyimino)azetidin-1-yl]pyridin-3-yl}benzyl carbamimidoylcarbamate]: in data set [1], the inhibition in vivo at 0.3 mg/kg was at least 50%. In addition, in data set [2], the AUC is at least 1000 ng·h/mL.
On the same counts, the results for `[2H]C([2H])([2H])ON=C1CN(c2ncc(-c3cccc(COC(=O)NC(=N)N)c3F)cc2F)C1` [Example 37, 2-fluoro-3-(5-fluoro-6-{3-[(methoxy-d3)imino]azetidin-1-yl}pyridin-3-yl)benzyl carbamimidoylcarbamate] are at least 50% and at least 1000 ng·h/mL.
In the case of `N=C(N)NC(=O)OCc1cccc(-c2cnc(N3CC(=NOCCC(O)CO)C3)c(F)c2)c1F` (stereo not shown) [Example 95, 3-(6-{3-[(3,4-Dihydroxybutoxy)imino]azetidin-1-yl}-5-fluoropyridin-3-yl)-2-fluorobenzyl carbamimidoylcarbamate], the inhibition in vivo at 0.3 mg/kg in data set [1] is at least 50%. In data set [2], the AUC was at least 1000 ng·h/mL.
As to `N=C(N)NC(=O)OCc1cccc(-c2cnc(N3CC(=NOCC(CO)CO)C3)c(F)c2)c1F` [Example 96, 2-Fluoro-3-{5-fluoro-6-[3-{[3-hydroxy-2-(hydroxymethyl)propoxy]imino}azetidin-1-yl]pyridin-3-yl}benzyl carbamimidoylcarbamate], the inhibition in vivo at 0.3 mg/kg in data set [1] was at least 50%. Moreover, the AUC in data set [2] was at least 1000 ng·h/mL.
On the same counts, the results for `N=C(N)NC(=O)OCc1cccc(-c2cnc(N3CC(=NOCC(F)CO)C3)nc2)c1F` (stereo not shown) [Example 102, 2-Fluoro-3-(2-{3-[(2-fluoro-3-hydroxypropoxy)imino]azetidin-1-yl}pyrimidin-5-yl)benzyl carbamimidoylcarbamate] are at least 50% and at least 1000 ng·h/mL.
